Source: US20060046976A1, “Method for increasing the bone mineral density and bone micro-architecture or connectivity of a mammal using N-acylated glucosamines” (priority 2004, published 2006)

Assays:
[1] = test system: ovariectomised rats; test: Femoral and spine BMD by DXA in ovariectomised rats fed GlcNBu; assay type: in vivo, rat; conditions: 200 mg GlcNBu by mouth daily, 6 months
Excerpt: This investigation was designed to test the effects of GlcNBu on the BMD of the femurs in an ovariectomised rat model. The experiments performed are described as follows.
FIGS. 1A and 1B show the effect of GlcNBu feeding on femoral BMD with time, over six months, in the ovariectomized rat. Both the top and bottom panels show the mean total designated herein as global BMD of the femurs for the 8 animals in each group, with time. The actual BMD values are shown on the vertical axes. FIG. 1A Glc-O represents the data from the ovariectomised rats fed with glucose and FIG. 1B GlcNBu-O represents data from the ovariectomised rats fed with GlcNBu. The sequential DXA scans for estimating BMD at times 0, 2 months, 4 months and 6 months are illustrated on the horizontal axis and designated as Sequential Scan number 1.0, 2.0. 3.0 and 4.0, respectively.
Sixteen ovariectomised rats (Charles River Laboratories), approximately 200 g in weight, were randomized into two groups. The control group received 200 mg of glucose, by mouth as single daily doses and the GlcNBu-treated group received 200 mg of GlcNBu by mouth, as single daily doses, for a total period of six (6) months. A similar group of non-ovariectomised animals was fed with GlcNBu or glucose at the same doses. […] Consistent position of the femurs was assured with a pre-determined grid. […]

[2] = test system: SCW-arthritis rats; test: BMD by DXA of femurs and tibias in SCW-arthritis rats; assay type: in vivo, Lewis type rats; conditions: 6 weeks
Excerpt: In this experiment performed and described herein, there were four groups of Lewis type rats, consisting of eight (8) animals in each group. Lewis type rats had experimental arthritis induced by a single intra-peritoneal injection of streptococcal cell wall antigen (SCW). This type of arthritis has an acute and chronic phase and affects mostly the distal joints in the hind limbs of the animals, and, less so, the knees and hips. Groups 1-3, inclusive, had inflammatory arthritis induced. The compound used in the experiment was used to supplement normal rat chow feed on a daily basis. Feed and water were unrestricted. Group I feed was supplemented with the compound shown in formula II, abbreviated as GlcNBu, at a dose of 200mg/kg/day. […] All the dissected femurs and tibiae were scanned with dual energy x-ray absorptiometry (DXA) were measured at the distal femur, and proximal tibia using a user defined region of interest (ROI). • Micro-CT imaging protocol. […] The reconstructed tibia images were analyzed with MicroView 2.0 software (GE Healthcare, London, ON) in two and three dimensions. • Three-dimensional trabecular bone measurements. […] On 3D analysis, the tissue volume (3D-TV, mm3) and trabecular bone volume (3D-BV, mm3) were measured directly, and the fractional trabecular bone volume (3D-BV/TV, %) was calculated. […]

Q: For `CCCC(=O)N[C@H]1C(O)O[C@H](CO)[C@@H](O)[C@@H]1O` (stereo partly drawn) [GlcNBu, N-butyryl-D-glucosamine], which “BMD of the spines vs glucose-fed” value ([1]; data not shown) is on record?
A: the differences were not reach statistical significance

Q: And the “femoral BMD (global) plateau vs control (glucose-fed) rats” value ([1]; plateau after 4 months, p<0.05)?
A: significantly higher

Q: And the “BMD femurs and tibias, Group I (GlcNBu 200 mg) vs Group 3 (GlcNBu 20 mg)” value ([2]; 200 mg/kg/day in feed)?
A: much greater

Q: What about the “BMD differences between Group 1 (GlcNBu 200 mg) and other Groups” value ([2]; 200 mg/kg/day) of the same molecule?
A: Statistical significance of the differences was achieved
